The results in this text go back to the supplement of paper PMC10307832.

What all share (assay): relative viability (nuclei count vs DMSO), 5 days (fraction); higher = more cells survive
Compound in assay [1]: O[C@@H](COc1cccc2ncccc12)CN1CCN([C@@H]2c3ccccc3[C@@H]3[C@H](c4ccccc42)C3(F)F)CC1 [Zosuquidar] + N=C(N)NC(=N)NCCc1ccccc1 [Phenformin] (partner 250 µM)
In short, it runs like this: (§1)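 Medians of duplicate plates are given as relative viability. That measure is the nuclei count in treated wells divided by the count in vehicle wells. Counts were taken on 4× images of lung cancer cell lines in 1536-well plates, 5 days after pin-tool dosing the day after seeding with one drug alone or a fixed anchor-drug dose plus five library-drug doses (not always all listed) in √10 steps.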

Compound in assay [2]: COc1cc2nccc(Oc3ccc(NC(=O)C4(C(=O)Nc5ccc(F)cc5)CC4)cc3)c2cc1OC [Cabozantinib] + Cc1nc(Nc2ncc(C(=O)Nc3c(C)cccc3Cl)s2)cc(N2CCN(CCO)CC2)n1 [Dasatinib] (partner 0.075 µM)
The gist of the method:
as §1

Compound in assay [3]: COc1cc2nccc(Oc3ccc(NC(=O)C4(C(=O)Nc5ccc(F)cc5)CC4)cc3)c2cc1OC [Cabozantinib] + CC(C)C[C@H](NC(=O)[C@H](Cc1ccccc1)NC(=O)c1cnccn1)B(O)O [Bortezomib] (partner 0.002 µM)
In short, it runs like this:
as §1

Compound in assay [4]: C1=CC(=CC=C1NC(=S)NNC2=C(C=C(C=C2[N+](=O)[O-])C(F)(F)F)[N+](=O)[O-])F [Kobe2602] + O=C(CCCCCCC(=O)Nc1ccccc1)NO [Vorinostat] (partner 1 µM)
In short, it runs like this:
as §1

Turning to UMC-11, the relative viability in assay [1] (first compound 0.01 µM) turned out to be 0.32; in assay [1] (first compound 0.03162 µM), 0.331; in assay [1] (first compound 0.1 µM), 0.441; in assay [1] (first compound 0.3162 µM), 0.386; in assay [1] (first compound 1 µM), 0.324; in assay [2] (first compound 0.02 µM), 0.494. For the same cell line, the relative viability in assay [2] (first compound 0.06325 µM) is 0.492; in assay [2] (first compound 0.2 µM), 0.453; in assay [2] (first compound 0.6325 µM), 0.493; in assay [2] (first compound 2 µM), 0.452; in assay [3] (first compound 0.02 µM) it was 0.669; in assay [3] (first compound 0.06325 µM), 0.921. In addition, the relative viability was 0.709 in assay [3] (first compound 0.2 µM); 0.649 in assay [3] (first compound 0.6325 µM); 0.815 in assay [3] (first compound 2 µM); 0.428 in assay [4] (first compound 0.2 µM); 0.39 in assay [4] (first compound 0.6325 µM); 0.336 in assay [4] (first compound 2 µM). For the same cell line, the values for the relative viability in assay [4] (first compound 6.325 µM) and in assay [4] (first compound 20 µM) were 0.409 and 0.377, respectively.
